Source: paper PMC1989143, “An Expanded Set of Amino Acid Analogs for the Ribosomal Translation of Unnatural Peptides” (PLoS ONE, 2007)

Experiments:
ThrRS = target: T1, ThrRS (Escherichia coli, UniProt P0A8M3); assay: tRNA aminoacylation competition assay, MALDI-TOF MS; assay type: biochemical; settings: 50000 µM; 50 µM natural Thr (Table 3), 6 mM ATP, 17 mM MgCl2, E. coli total tRNA, pH 7.4, 37 °C; competitive
T1 construct: gene thrS; His-tagged, recombinant, purified
From the text: tRNA aminoacylation competition assay, MALDI-TOF MS on ThrRS

PheRS = target: T2, PheRS (Escherichia coli, UniProt P08312); assay: as above; assay type: biochemical; settings: 5000 µM; 5 µM natural Phe (Table 3), 6 mM ATP, 17 mM MgCl2, E. coli total tRNA, pH 7.4, 37 °C; competitive
T2 construct: gene pheS; His-tagged, recombinant, purified; wild-type enzyme; with Phenylalanine--tRNA ligase beta subunit
T2 sequence (P08312 whole entry): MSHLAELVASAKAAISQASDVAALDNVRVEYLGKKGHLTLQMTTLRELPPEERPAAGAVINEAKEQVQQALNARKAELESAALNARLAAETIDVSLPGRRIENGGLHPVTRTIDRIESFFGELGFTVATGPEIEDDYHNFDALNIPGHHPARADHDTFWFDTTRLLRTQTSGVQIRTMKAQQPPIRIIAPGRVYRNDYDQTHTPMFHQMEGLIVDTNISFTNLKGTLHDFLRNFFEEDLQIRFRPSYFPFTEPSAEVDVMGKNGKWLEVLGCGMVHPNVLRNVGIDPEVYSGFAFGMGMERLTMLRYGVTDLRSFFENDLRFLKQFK
T2 sequence (P07395 whole entry partner): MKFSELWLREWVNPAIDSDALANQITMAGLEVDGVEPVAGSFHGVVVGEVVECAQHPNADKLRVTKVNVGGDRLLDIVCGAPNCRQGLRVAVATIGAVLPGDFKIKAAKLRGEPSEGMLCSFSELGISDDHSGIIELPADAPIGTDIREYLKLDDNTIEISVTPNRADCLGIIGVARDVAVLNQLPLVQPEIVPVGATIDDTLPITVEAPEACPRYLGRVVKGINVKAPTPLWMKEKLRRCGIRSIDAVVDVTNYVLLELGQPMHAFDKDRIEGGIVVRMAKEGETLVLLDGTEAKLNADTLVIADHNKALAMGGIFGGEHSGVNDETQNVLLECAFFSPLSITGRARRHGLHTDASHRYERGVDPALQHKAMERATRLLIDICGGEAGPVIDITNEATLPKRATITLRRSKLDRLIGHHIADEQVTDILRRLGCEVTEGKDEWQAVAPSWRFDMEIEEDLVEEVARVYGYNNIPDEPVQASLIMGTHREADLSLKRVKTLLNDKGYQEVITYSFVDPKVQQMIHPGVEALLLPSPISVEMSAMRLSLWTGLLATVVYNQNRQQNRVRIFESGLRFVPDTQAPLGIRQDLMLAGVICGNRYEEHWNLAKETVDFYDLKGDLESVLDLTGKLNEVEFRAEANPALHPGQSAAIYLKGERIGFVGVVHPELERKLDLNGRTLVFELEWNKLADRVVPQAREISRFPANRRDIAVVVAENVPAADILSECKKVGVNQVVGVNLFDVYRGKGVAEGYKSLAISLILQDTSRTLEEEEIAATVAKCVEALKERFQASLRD
From the text: tRNA aminoacylation competition assay, MALDI-TOF MS on PheRS

T1 sequence (P0A8M3 whole entry): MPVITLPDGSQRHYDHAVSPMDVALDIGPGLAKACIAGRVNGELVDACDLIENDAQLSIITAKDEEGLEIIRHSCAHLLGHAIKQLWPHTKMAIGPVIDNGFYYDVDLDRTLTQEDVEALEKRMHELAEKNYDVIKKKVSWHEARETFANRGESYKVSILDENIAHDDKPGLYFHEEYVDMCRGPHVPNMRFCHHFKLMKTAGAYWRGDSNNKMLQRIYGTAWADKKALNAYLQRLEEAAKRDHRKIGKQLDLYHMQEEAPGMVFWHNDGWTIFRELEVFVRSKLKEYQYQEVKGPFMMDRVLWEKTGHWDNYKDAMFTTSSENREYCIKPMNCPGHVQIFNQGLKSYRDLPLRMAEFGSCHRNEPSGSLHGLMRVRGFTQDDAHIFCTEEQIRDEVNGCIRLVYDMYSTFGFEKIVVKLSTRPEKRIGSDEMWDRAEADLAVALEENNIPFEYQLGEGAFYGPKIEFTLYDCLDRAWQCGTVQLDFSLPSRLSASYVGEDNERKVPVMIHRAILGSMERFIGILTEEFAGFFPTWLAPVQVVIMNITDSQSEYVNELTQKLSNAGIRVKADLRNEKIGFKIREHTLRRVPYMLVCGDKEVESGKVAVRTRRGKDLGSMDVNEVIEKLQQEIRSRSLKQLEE

SMILES | % Inhibition ^b (ThrRS) | % Inhibition ^b (PheRS)
CCC(O)C(N)C(=O)O (racemic) [P5, DL-β-hydroxy norvaline] | 92 (range 2.9) % | 
NC(Cc1ccccc1F)C(=O)O (centres unmarked) [A5, 2-fluoro Phe] |  | 78 (range 2.1) %
